Where “and” joins values, the source holds several entries; their conditions need not be identical. Equal values may be shown once. Inconclusive results and toxic doses are left out. No stated cut-off is given here; in the data, active means T/C of 150% or more; inactive means T/C below 125%.
Test system: L1210 leukemia ip in BDF1 mice, survival T/C
Test: NCI In Vivo Anticancer Drug Screen. Data for tumor model L1210 Leukemia (intraperitoneal) in B6D2F1 (BDF1) mice
Conditions: endpoint: mean survival time, higher = longer survival
Procedure, shortened: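 In this screen, tumor-bearing mice given compound are compared to those given vehicle, and their survival values are reported as a treated-to-control quotient.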

[1] = dose: 100.0 mg/kg/injection, schedule: Q01DX001 (ip), vehicle: Klucel (hydroxypropylcellulose) (HPC)
[2] = dose: 100.0 mg/kg/injection, schedule: Q01DX009 (ip), vehicle: Klucel (hydroxypropylcellulose) (HPC)
[3] = dose: 200.0 mg/kg/injection, schedule: Q01DX001 (ip), vehicle: Klucel (hydroxypropylcellulose) (HPC)
[4] = dose: 200.0 mg/kg/injection, schedule: Q01DX009 (ip), vehicle: Klucel (hydroxypropylcellulose) (HPC)
[5] = dose: 400.0 mg/kg/injection, schedule: Q01DX001 (ip), vehicle: Klucel (hydroxypropylcellulose) (HPC)
[6] = dose: 100.0 mg/kg/injection, schedule: Q01DX001 (ip), vehicle: carboxymethylcellulose (CMC)
[7] = dose: 200.0 mg/kg/injection, schedule: Q01DX001 (ip), vehicle: carboxymethylcellulose (CMC)
[8] = dose: 400.0 mg/kg/injection, schedule: Q01DX001 (ip), vehicle: carboxymethylcellulose (CMC)
[9] = dose: 100.0 mg/kg/injection, schedule: Q04DX003 (ip), vehicle: Klucel (hydroxypropylcellulose) (HPC)
[10] = dose: 200.0 mg/kg/injection, schedule: Q04DX003 (ip), vehicle: Klucel (hydroxypropylcellulose) (HPC)
[11] = dose: 100.0 mg/kg/injection, schedule: Q01DX009 (ip), vehicle: saline with Tween-80
[12] = dose: 100.0 mg/kg/injection, schedule: Q04DX003 (ip), vehicle: saline with Tween-80
[13] = dose: 200.0 mg/kg/injection, schedule: Q01DX009 (ip), vehicle: saline with Tween-80
[14] = dose: 200.0 mg/kg/injection, schedule: Q04DX003 (ip), vehicle: saline with Tween-80
[15] = dose: 400.0 mg/kg/injection, schedule: Q01DX009 (ip), vehicle: saline with Tween-80
[16] = dose: 400.0 mg/kg/injection, schedule: Q04DX003 (ip), vehicle: saline with Tween-80
[17] = dose: 400.0 mg/kg/injection, schedule: Q01DX009 (ip), vehicle: Klucel (hydroxypropylcellulose) (HPC)
[18] = dose: 400.0 mg/kg/injection, schedule: Q04DX003 (ip), vehicle: Klucel (hydroxypropylcellulose) (HPC)
[19] = dose: 100.0 mg/kg/injection, schedule: Q04DX002 (ip), vehicle: saline with Tween-80
[20] = dose: 200.0 mg/kg/injection, schedule: Q04DX002 (ip), vehicle: saline with Tween-80
[21] = dose: 400.0 mg/kg/injection, schedule: Q04DX002 (ip), vehicle: saline with Tween-80
[22] = dose: 25.0 mg/kg/injection, schedule: Q01DX009 (ip), vehicle: Klucel (hydroxypropylcellulose) (HPC)
[23] = dose: 50.0 mg/kg/injection, schedule: Q01DX009 (ip), vehicle: Klucel (hydroxypropylcellulose) (HPC)
[24] = dose: 100.0 mg/kg/injection, schedule: Q01DX009 (ip), vehicle: saline
[25] = dose: 100.0 mg/kg/injection, schedule: Q04DX003 (ip), vehicle: saline
[26] = dose: 200.0 mg/kg/injection, schedule: Q01DX009 (ip), vehicle: saline
[27] = dose: 200.0 mg/kg/injection, schedule: Q04DX003 (ip), vehicle: saline
[28] = dose: 400.0 mg/kg/injection, schedule: Q01DX009 (ip), vehicle: saline
[29] = dose: 400.0 mg/kg/injection, schedule: Q04DX003 (ip), vehicle: saline
[30] = dose: 25.0 mg/kg/injection, schedule: Q01DX009 (ip), vehicle: saline
[31] = dose: 25.0 mg/kg/injection, schedule: Q04DX003 (ip), vehicle: saline
[32] = dose: 50.0 mg/kg/injection, schedule: Q04DX003 (ip), vehicle: saline
[33] = dose: 50.0 mg/kg/injection, schedule: Q01DX009 (ip), vehicle: saline

Measured: T/C

CCOC(=O)C(=O)Nc1onc(C)c1[N+](=O)[O-]
inactive: [1] 91 % of control | [2] 93 % of control | [3] 97 % of control | [4] 93 % of control | [5] 100 % of control

CCC[N+]1=C(/C=C/c2ccc3cccnc3c2O)C(C)(C)c2ccccc21
inactive: [6] 95 % of control | [7] 98 % of control | [8] 93 % of control

O=C(O)c1cccc(F)c1C(=O)c1ccc2ccccc2c1 (tested in a mixture with another compound)
inactive: [9] 105 % of control | [10] 86 % of control

NC(=O)c1cnc(N)nc1C(N)=O
inactive: [11] 94 % of control | [12] 96 % of control | [13] 100 % of control | [14] 100 % of control | [15] 96 % of control | [16] 94 % of control

COc1cccc(/C(=C/c2ccc([N+](=O)[O-])cc2)C(=O)O)c1
inactive: [1] 100 % of control | [2] 97 % of control and 100 % of control | [9] 100 % of control | [3] 109 % of control | [4] 96 % of control and 87 % of control | [10] 105 % of control | [5] 97 % of control | [17] 100 % of control and 91 % of control | [18] 105 % of control

CCNc1nc(Cl)nc(NCC)n1
inactive: dose: 100.0 mg/kg/injection, schedule: Q01DX009 (ip), vehicle: saline sonified 98 % of control | [11] 95 % of control | [9] 94 % of control and 103 % of control | dose: 200.0 mg/kg/injection, schedule: Q01DX009 (ip), vehicle: saline sonified 98 % of control | [13] 94 % of control | [10] 94 % of control and 103 % of control | dose: 400.0 mg/kg/injection, schedule: Q01DX009 (ip), vehicle: saline sonified 96 % of control | [15] 100 % of control | [18] 102 % of control and 103 % of control

CCOC(=O)c1ccc(C(=O)OCC)c(Cl)n1
inactive: [2] 97 % of control | [9] 105 % of control | [4] 95 % of control | [10] 97 % of control | [17] 97 % of control | [18] 102 % of control

Cc1cn[nH]c1-c1ccccc1O
inactive: [19] 96 % of control | [20] 100 % of control | [21] 100 % of control

C=C/C(C)=C/[C@H](C)C(=O)C[C@H](O)CC1CC(=O)NC(=O)C1
inactive: dose: 12.5 mg/kg/injection, schedule: Q01DX009 (ip), vehicle: saline with Tween-80 109 % of control | [22] 113 % of control | dose: 25.0 mg/kg/injection, schedule: Q01DX009 (ip), vehicle: saline with Tween-80 120 % of control | [23] 122 % of control | dose: 50.0 mg/kg/injection, schedule: Q01DX009 (ip), vehicle: saline with Tween-80 119 % of control | [2] 90 % of control | [11] 123 % of control

N#CCC(=O)N1CCc2ccccc2C1
inactive: [11] 97 % of control | [19] 94 % of control | [13] 97 % of control | [20] 105 % of control | [21] 101 % of control

NCCCN1CCN(CCCN)CC1
inactive: dose: 100.0 mg/kg/injection, schedule: Q01DX001 (ip), vehicle: saline 98 % of control | [24] 94 % of control and 103 % of control | [25] 97 % of control | dose: 200.0 mg/kg/injection, schedule: Q01DX001 (ip), vehicle: saline 90 % of control | [26] 94 % of control and 97 % of control | [27] 96 % of control | dose: 400.0 mg/kg/injection, schedule: Q01DX001 (ip), vehicle: saline 95 % of control | [28] 100 % of control and 88 % of control | [29] 92 % of control

O=NN(CC(=O)O)c1cccnc1
inactive: [22] 98 % of control | [23] 101 % of control | [2] 107 % of control

CCCCS.[Pb]
inactive: [12] 95 % of control | [14] 95 % of control | [16] 96 % of control

CC(CS(=O)(=O)O)NC(CO)(CO)CO (stereo not drawn)
inactive: [24] 104 % of control | [25] 100 % of control | [26] 98 % of control | [27] 100 % of control | [28] 96 % of control | [29] 100 % of control

CN=NC(C)(C)OC(C)=O
inactive: dose: 12.5 mg/kg/injection, schedule: Q01DX001 (ip), vehicle: saline 97 % of control | dose: 12.5 mg/kg/injection, schedule: Q01DX009 (ip), vehicle: saline 101 % of control | dose: 12.5 mg/kg/injection, schedule: Q04DX003 (ip), vehicle: saline 107 % of control | dose: 25.0 mg/kg/injection, schedule: Q01DX001 (ip), vehicle: saline 96 % of control | [30] 108 % of control | [31] 107 % of control | dose: 50.0 mg/kg/injection, schedule: Q01DX001 (ip), vehicle: saline 107 % of control | [32] 98 % of control

[I][Hg][CH2]C1COCC([CH2][Hg][I])O1.[I][Hg][CH2]C1COCC([CH2][Hg][I])O1 (stereo not drawn)
inactive: dose: 20.0 mg/kg/injection, schedule: Q04DX003 (ip), vehicle: carboxymethylcellulose (CMC) 100 % of control | dose: 40.0 mg/kg/injection, schedule: Q01DX001 (ip), vehicle: carboxymethylcellulose (CMC) 91 % of control | dose: 40.0 mg/kg/injection, schedule: Q04DX003 (ip), vehicle: carboxymethylcellulose (CMC) 105 % of control | dose: 80.0 mg/kg/injection, schedule: Q01DX001 (ip), vehicle: carboxymethylcellulose (CMC) 93 % of control

Cc1ccccc1OCC(O)CO (stereo not drawn)
inactive: [30] 95 % of control | [31] 101 % of control | [33] 93 % of control | [32] 95 % of control | [24] 102 % of control | [25] 95 % of control | [26] 102 % of control | [27] 111 % of control | [28] 98 % of control | [29] 123 % of control

CCCCCCOC(=O)Nc1ccc(S(=O)(=O)CC)cc1
inactive: [6] 100 % of control | [7] 97 % of control | [8] 97 % of control

CC(=O)OCC(OS(=O)(=O)c1ccc(C)cc1)C(OC(C)=O)C(OC(C)=O)C(COC(C)=O)OS(=O)(=O)c1ccc(C)cc1 (stereo not drawn)
inactive: dose: 50.0 mg/kg/injection, schedule: Q04DX002 (ip), vehicle: Klucel (hydroxypropylcellulose) (HPC) 90 % of control | dose: 100.0 mg/kg/injection, schedule: Q04DX002 (ip), vehicle: Klucel (hydroxypropylcellulose) (HPC) 101 % of control | dose: 200.0 mg/kg/injection, schedule: Q04DX002 (ip), vehicle: Klucel (hydroxypropylcellulose) (HPC) 101 % of control

CCCCP(=O)(CC(=O)O)c1ccccc1 (stereo not drawn)
inactive: [19] 97 % of control | [20] 100 % of control | [21] 90 % of control

Nc1ccn(C2OC(COC3CCCCO3)C(OC3CCCCO3)C2OC2CCCCO2)c(=O)n1 (stereo not drawn)
inactive: [33] 95 % of control | dose: 100.0 mg/kg/injection, schedule: Q01DX005 (ip), vehicle: saline 110 % of control | [24] 104 % of control | dose: 200.0 mg/kg/injection, schedule: Q01DX005 (ip), vehicle: saline 94 % of control | [26] 101 % of control

CCOC(=O)/C=C(/OC(=O)c1ccccc1)c1ccccc1
inactive: dose: 100.0 mg/kg/injection, schedule: Q01DX001 (ip), vehicle: acetone 95 % of control | [24] 107 % of control | dose: 200.0 mg/kg/injection, schedule: Q01DX001 (ip), vehicle: acetone 97 % of control | [26] 107 % of control | dose: 400.0 mg/kg/injection, schedule: Q01DX001 (ip), vehicle: acetone 103 % of control | [28] 94 % of control

From PubChem BioAssay AID248 (DTP/NCI, 2004)
